Consider 13 compounds from patent publication US7750003B2, “Compounds-943” (AstraZeneca AB, priority 2006, dated 2010).

In the assay the target is recombinant mTOR (FLAG-tagged, residues 1362-2549) (Homo sapiens, UniProt P42345). The experiment in a line: In vitro mTOR kinase assay (Test (a), AlphaScreen). As to conditions: ATP 20 μM, read-out: Test (a): IC50 versus mTOR kinase. Type of assay: biochemical. In short, it runs like this: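 AlphaScreen read-out: a phospho-T389 p70 S6K antibody on acceptor beads captures the phosphorylated biotin-peptide on donor beads, with signal loss indicating inhibition.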
Chain of recombinant mTOR (FLAG-tagged, residues 1362-2549) (P42345 1362-2549): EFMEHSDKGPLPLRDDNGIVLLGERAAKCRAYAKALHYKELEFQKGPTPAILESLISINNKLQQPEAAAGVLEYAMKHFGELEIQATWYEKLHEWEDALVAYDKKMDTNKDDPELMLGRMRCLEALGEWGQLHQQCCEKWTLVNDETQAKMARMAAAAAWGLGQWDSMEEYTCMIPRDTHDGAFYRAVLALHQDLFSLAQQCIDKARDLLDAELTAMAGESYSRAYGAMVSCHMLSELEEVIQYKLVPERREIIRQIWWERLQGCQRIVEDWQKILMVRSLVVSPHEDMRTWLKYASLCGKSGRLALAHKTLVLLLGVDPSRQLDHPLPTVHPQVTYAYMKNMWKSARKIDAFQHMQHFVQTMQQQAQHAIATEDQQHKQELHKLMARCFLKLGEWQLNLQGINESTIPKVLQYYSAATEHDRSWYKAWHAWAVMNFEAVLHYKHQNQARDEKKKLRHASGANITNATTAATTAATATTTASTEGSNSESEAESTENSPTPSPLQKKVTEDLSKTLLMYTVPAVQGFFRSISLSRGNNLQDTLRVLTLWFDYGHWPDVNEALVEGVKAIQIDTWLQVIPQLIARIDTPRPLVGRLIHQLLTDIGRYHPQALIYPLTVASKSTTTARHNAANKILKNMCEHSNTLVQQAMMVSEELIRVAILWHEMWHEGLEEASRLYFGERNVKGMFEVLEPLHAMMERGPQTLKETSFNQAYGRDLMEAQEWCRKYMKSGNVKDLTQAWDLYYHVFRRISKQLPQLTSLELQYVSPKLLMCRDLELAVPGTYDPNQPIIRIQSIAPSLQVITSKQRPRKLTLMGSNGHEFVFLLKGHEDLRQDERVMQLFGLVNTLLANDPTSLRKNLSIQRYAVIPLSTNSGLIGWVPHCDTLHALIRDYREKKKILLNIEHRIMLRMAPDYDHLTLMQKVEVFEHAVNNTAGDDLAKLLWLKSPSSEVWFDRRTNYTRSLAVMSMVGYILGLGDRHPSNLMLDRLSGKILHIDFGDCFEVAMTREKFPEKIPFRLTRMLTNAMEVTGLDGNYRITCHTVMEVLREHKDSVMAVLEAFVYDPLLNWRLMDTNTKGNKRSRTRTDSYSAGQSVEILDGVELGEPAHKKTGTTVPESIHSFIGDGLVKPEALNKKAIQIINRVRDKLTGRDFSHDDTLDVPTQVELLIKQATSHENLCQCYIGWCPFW
As for `CS(=O)(=O)Cc1cc(N2CCOCC2)nc(-c2ccc(NC(=O)NC3CCOCC3)cc2)n1` [Example 45u, 1-[4-[4-(methylsulfonylmethyl)-6-morpholin-4-yl-pyrimidin-2-yl]phenyl]-3-(oxan-4-yl)urea], the concentration for half-maximal inhibition (IC50) worked out at 420 nM. As for `CS(=O)(=O)Cc1cc(N2CCOCC2)nc(-c2ccc(NC(=O)N3CCNC(=O)C3)cc2)n1` [Example 45v, [4-[4-(methylsulfonylmethyl)-6-morpholin-4-yl-pyrimidin-2-yl]phenyl]-3-oxo-piperazine-1-carboxamide], the IC50 worked out at 1200 nM. As to `CN1CCN(CCNC(=O)Nc2ccc(-c3nc(CS(C)(=O)=O)cc(N4CCOCC4)n3)cc2)CC1` [Example 45w, 1-[2-(4-methylpiperazin-1-yl)ethyl]-3-[4-[4-(methylsulfonylmethyl)-6-morpholin-4-yl-pyrimidin-2-yl]phenyl]urea], the IC50 came to 740 nM. Then `CN(CCS(C)(=O)=O)C(=O)Nc1ccc(-c2nc(CS(C)(=O)=O)cc(N3CCOCC3)n2)cc1` [Example 45x, 1-methyl-1-(2-methylsulfonylethyl)-3-[4-[4-(methylsulfonylmethyl)-6-morpholin-4-yl-pyrimidin-2-yl]phenyl]urea], with 1100 nM; and `CNC(=O)C1CCN(C(=O)Nc2ccc(-c3nc(CS(C)(=O)=O)cc(N4CCOCC4)n3)cc2)CC1` [Example 45y, N′-methyl-N-[4-[4-(methylsulfonylmethyl)-6-morpholin-4-yl-pyrimidin-2-yl]phenyl]piperidine-1,4-dicarboxamide], with 1200 nM. Regarding `CN(C)C(=O)CNC(=O)Nc1ccc(-c2nc(CS(C)(=O)=O)cc(N3CCOCC3)n2)cc1` [Example 45z, N,N-dimethyl-2-[[4-[4-(methylsulfonylmethyl)-6-morpholin-4-yl-pyrimidin-2-yl]phenyl]carbamoylamino] acetamide], the IC50 was 1000 nM. The figure for `CNC(=O)Nc1ncc(-c2nc(CS(C)(=O)=O)cc(N3CCOC[C@@H]3C)n2)s1` [Example 46, 3-Methyl-1-[5-[4-[(3S)-3-methylmorpholin-4-yl]-6-(methylsulfonylmethyl)pyrimidin-2-yl]-1,3-thiazol-2-yl]urea] is 140 nM; for `CC(C)NC(=O)Nc1ncc(-c2nc(CS(C)(=O)=O)cc(N3CCOC[C@@H]3C)n2)s1` [Example 46a, 1-[5-[4-[(3S)-3-methylmorpholin-4-yl]-6-(methylsulfonylmethyl)pyrimidin-2-yl]-1,3-thiazol-2-yl]-3-propan-2-yl-urea] it is 350 nM; for `CCNC(=O)Nc1ncc(-c2nc(CS(C)(=O)=O)cc(N3CCOC[C@@H]3C)n2)s1` [Example 46b, 1-ethyl-3-[5-[4-[(3S)-3-methylmorpholin-4-yl]-6-(methylsulfonylmethyl)pyrimidin-2-yl]-1,3-thiazol-2-yl]urea] it is 6.1 nM. For `C[C@H]1COCCN1c1cc(CS(C)(=O)=O)nc(-c2cnc(NC(=O)Nc3ccccc3)s2)n1` [Example 46c, 1-[5-[4-[(3S)-3-methylmorpholin-4-yl]-6-(methylsulfonylmethyl)pyrimidin-2-yl]-1,3-thiazol-2-yl]-3-phenyl-urea], the IC50 stood at 450 nM.

On to `C[C@H]1COCCN1c1cc(CS(C)(=O)=O)nc(-c2cnc(NC(=O)Nc3ccc(F)cc3)s2)n1` [Example 46d, 3-(4-fluorophenyl)-1-[5-[4-[(3S)-3-methylmorpholin-4-yl]-6-(methylsulfonylmethyl)pyrimidin-2-yl]-1,3-thiazol-2-yl]urea], for which the IC50 was 850 nM.

For `C[C@H]1COCCN1c1cc(CS(C)(=O)=O)nc(-c2cnc(NC(=O)N(C)C3CC3)s2)n1` [Example 46e, 1-cyclopropyl-1-methyl-3-[5-[4-[(3S)-3-methylmorpholin-4-yl]-6-(methylsulfonylmethyl)pyrimidin-2-yl]-1,3-thiazol-2-yl]urea], the IC50 stood at 710 nM. With `COc1ccc(NC(=O)Nc2ncc(-c3nc(CS(C)(=O)=O)cc(N4CCOC[C@@H]4C)n3)s2)cc1` [Example 46f, 3-(4-methoxyphenyl)-1-[5-[4-[(3S)-3-methylmorpholin-4-yl]-6-(methylsulfonylmethyl)pyrimidin-2-yl]-1,3-thiazol-2-yl]urea], the IC50 worked out at 1200 nM.
